In US7235574B2, “Pentafluorosulfanyl compounds” (Hoffmann-La Roche Inc., priority 2004, dated 2007):

Tests used:
HER2 = molecular target: T1, HER2 (Homo sapiens, UniProt P04626); assay: Inhibition of HER2 Phosphorylation in Calu3 Tumor Cell Line; format: cell-based; conditions: Calu3 cells; for percentage of inhibition of HER2 phosphorylation compared with the reference compound: comparison with reference compound (Example 4, p. 88, WO 01/77107); for inhibition at 1 µM: Calu-3, read-out: Percent inhibition of HER2-phosphorylation
T1 construct: endogenous in cells; host or cells: Calu3 tumor cell line
Description: Inhibition of HER2 Phosphorylation in Calu3 Tumor Cell Line
2×10^5 Calu3 cells per well were plated in a 12-well plate. After 4 days cells were starved for 16 h in DMEM (Dulbecco's Modified Eagle Medium)/0.5% FCS/1% glutamine. During this time cells were incubated with […] of a compound according to this invention. Afterwards cells were lysed in lyses buffer containing 1% Triton, 10% glycerol, 1 mM EGTA, 1.5 mM MgCl2, 150 mM NaCl, 50 mM Hepes pH 7.5, 1 mM PMSF, 10 μg/mL aprotinin and […] orthovanadate. Cell lysates were analyzed on a SDS PAGE and after transfer to a nitrocellulose membrane detected with a rabbit antibody specifically recognizing the pY 1248 in HER2 (Cell Signaling). After incubation with an anti rabbit antibody coupled to POD (Peroxidase from Biorad, Munich, Germany) signals were detected by chemiluminescence (ECL, Amersham). Inhibition of HER2 phosphorylation is calculated as percentage of the DMSO treated control. This percentage is calculated according to the following formula: Inhibition in %=100−(Phosphorylated-HER2-Signal of Test Sample*100/Phosphorylated-HER2-Signal DMSO-control).

[1] = compound concentration 1 μM, 16 h incubation, pY 1248 in HER2, percentage of the DMSO treated control

T1 sequence (P04626 23-1255): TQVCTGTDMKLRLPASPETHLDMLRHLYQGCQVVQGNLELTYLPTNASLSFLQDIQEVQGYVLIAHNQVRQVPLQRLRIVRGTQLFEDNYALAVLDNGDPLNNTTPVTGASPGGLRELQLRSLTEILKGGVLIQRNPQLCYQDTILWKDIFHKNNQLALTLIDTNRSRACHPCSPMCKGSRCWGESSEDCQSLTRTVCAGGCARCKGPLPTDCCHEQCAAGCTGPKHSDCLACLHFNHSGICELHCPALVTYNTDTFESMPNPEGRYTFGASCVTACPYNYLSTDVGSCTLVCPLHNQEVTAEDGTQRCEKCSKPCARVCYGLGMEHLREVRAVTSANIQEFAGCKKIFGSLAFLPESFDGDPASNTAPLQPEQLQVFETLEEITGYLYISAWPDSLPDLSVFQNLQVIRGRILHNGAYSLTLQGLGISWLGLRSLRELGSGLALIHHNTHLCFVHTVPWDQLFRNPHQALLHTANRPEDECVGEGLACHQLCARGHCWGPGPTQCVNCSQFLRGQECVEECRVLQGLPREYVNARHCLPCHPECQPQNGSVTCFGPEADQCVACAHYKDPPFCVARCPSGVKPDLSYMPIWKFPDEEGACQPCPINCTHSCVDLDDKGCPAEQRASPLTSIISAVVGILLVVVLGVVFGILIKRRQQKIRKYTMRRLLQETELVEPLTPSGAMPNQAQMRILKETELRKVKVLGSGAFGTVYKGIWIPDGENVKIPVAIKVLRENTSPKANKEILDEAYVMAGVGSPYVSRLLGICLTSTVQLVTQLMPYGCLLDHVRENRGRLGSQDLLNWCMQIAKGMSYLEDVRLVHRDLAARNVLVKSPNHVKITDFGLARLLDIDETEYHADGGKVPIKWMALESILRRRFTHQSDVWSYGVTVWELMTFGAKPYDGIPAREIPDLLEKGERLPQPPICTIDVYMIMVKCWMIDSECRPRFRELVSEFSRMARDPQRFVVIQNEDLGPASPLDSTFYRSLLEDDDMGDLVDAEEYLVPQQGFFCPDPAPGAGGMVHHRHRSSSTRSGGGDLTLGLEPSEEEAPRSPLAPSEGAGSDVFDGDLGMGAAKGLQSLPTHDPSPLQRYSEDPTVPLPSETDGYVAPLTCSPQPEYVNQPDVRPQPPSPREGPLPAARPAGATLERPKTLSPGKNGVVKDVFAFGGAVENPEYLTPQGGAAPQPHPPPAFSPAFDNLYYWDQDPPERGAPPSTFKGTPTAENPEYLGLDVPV

Row | inhibition at 1 µM (HER2; [1]) [%] | Percent inhibition of HER2-phosphorylation (HER2; [1]) [%] | melting point [°C] | Compound | percentage of inhibition of HER2 phosphorylation compared with the reference compound (HER2)
1 | 87.5 | – | – | FS(F)(F)(F)(F)c1ccc(C=Cc2nc(COc3ccc(CCCCn4ccnc4)cc3)co2)cc1 [example 1, 4-[4-(4-Imidazol-1-yl-butyl)-phenoxymethyl]-2-[2-(4-pentafluorosulfanyl-phenyl)-vinyl]-oxazole] | higher percentage of inhibition of phosphorylation
2 | 86.1 | – | – | FS(F)(F)(F)(F)c1ccc(/C=C/c2nc(COc3ccc(CCCCn4ccnn4)cc3)co2)cc1 [example 4, 1-[4-(4-{2-[(E)-2-(-4-Pentafluorosulfanyl-phenyl)-vinyl]-oxazol-4-ylmethoxy}-phenyl)-butyl]-1H-[1,2,3]triazole] | higher percentage of inhibition of phosphorylation
3 | – | 52.9 | – | FS(F)(F)(F)(F)c1ccc(C=Cc2nc(COc3ccc(COCCn4ccnn4)cc3)co2)cc1 [example 9, 1-[2-(4-{2-[-4-(Pentafluorosulfanyl-phenyl)-vinyl]-oxazol-4-ylmethoxy}-benzyloxy)-ethyl]-1H-[1,2,3]-triazole] | higher percentage of inhibition of phosphorylation
4 | 59.7 | – | – | O=S(=O)(CCn1ccnn1)Cc1ccc(OCc2coc(/C=C/c3ccc(S(F)(F)(F)(F)F)cc3)n2)cc1 [example 11, 1-[2-(4-{2-[(E)-2-(4-Pentafluorosulfanyl-phenyl)-vinyl]-oxazol-4-ylmethoxy}-phenylmethanesulfonyl)-ethyl]-1H-[1,2,3]triazole] | higher percentage of inhibition of phosphorylation
5 | 68.8 | – | – | FS(F)(F)(F)(F)c1ccc(C=Cc2nc(COc3ccc(C=CCCn4ccnn4)cc3)co2)cc1 [example 12, 1-[4-(4-{2-[2-(4-Pentafluorosulfanyl-phenyl)-vinyl]-oxazol-4-ylmethoxy}-phenyl)-but-3-enyl]-1H-[1,2,3]triazole] | higher percentage of inhibition of phosphorylation
6 | 71.7 | – | 170 to 172 | O=S(=O)(NCCn1ccnn1)c1ccc(OCc2coc(C=Cc3ccc(S(F)(F)(F)(F)F)cc3)n2)cc1 [example 14, N-(2-[1,2,3]Triazol-1-yl-ethyl)-4-{2-[2-(4-pentafluorosulfanyl-phenyl)-vinyl]-oxazol-4-ylmethoxy}-benzenesulfonamide] | higher percentage of inhibition of phosphorylation
7 | 97.5 | – | – | FS(F)(F)(F)(F)c1ccc(C=Cc2nc(COc3ccc(OCCCn4ccnn4)cc3)co2)cc1 [example 15, 1-[3-(4-{2-[2-(4-Pentafluorosulfanyl-phenyl)-vinyl]-oxazol-4-ylmethoxy}-phenoxy)-propyl]-1H-[1,2,3]triazole] | higher percentage of inhibition of phosphorylation
8 | 91.9 | – | – | FS(F)(F)(F)(F)c1ccc(C=Cc2nc(CNc3ccc(CCCCn4ccnn4)cc3)co2)cc1 [example 16, [4-(4-[1,2,3]Triazol-1-yl-butyl)-phenyl]-{2-[2-(4-pentafluorosulfanyl-phenyl)-vinyl]-oxazol-4-ylmethyl}-amine] | higher percentage of inhibition of phosphorylation
